EP0852142A1, “Diamines in the treatment of arrhythmia” (SMITHKLINE BEECHAM LABORATOIRES PHARMACEUTIQUES, priority 1992, dated 1993)
“And” between values parts separate entries of the source, which are not always exact repeats. Identical values can stand only once.

Assays:
[1] = tested on: Ischemia and reperfusion-induced arrhythmias; assay: Ischemia and reperfusion-induced arrhythmias (ventricular fibrillation) in anesthetized dogs; format: in vivo, dog
Method: Surgical preparation. Dogs were anesthetized using 30 mg/kg i.v. sodium pentobarbital. […] A catheter was inserted into the right femoral artery to measure the systemic arterial pressure (Statham P23 ID, GOULD). A 5F Millar microtip catheter pressure transducer was inserted into the left carotid artery and advanced into the left ventricular lumen to measure the left ventricular pressure (LVP) and its first positive derivative dP/dt. Peripheral venous and arterial catheters were placed for drug administration and blood samples collection, respectively. Electrocardiographic variables were measured via a standard lead II ECG. […] After a left thoracotomy through the fifth intercostal space, the heart was suspended in a pericardial cradle. The left circumflex coronary artery (LCX) was isolated close to its origin and a silk suture was placed around it for later occlusion.
Experimental time course. After placement of the silk strand the animal was allowed to stabilize for at least 10 minutes. Arterial blood gases were determined (ABL500, Radiometer), and ventilation was adjusted to maintain these parameters within the normal range. Then, intravenous administration of the drug was performed in 10 minutes. After the drug administration, hemodynamic and ECG variables were again measured and the LCX was occluded for 45 minutes by placing a microclamp. Reperfusion performed by removing the clamp was continued for 5 hours.
Measurements. Ventricular arrhythmias were analyzed during the preischemic period, during ischemia and during the first hour of reperfusion. Ventricular premature beats (VPBs) were defined as identifiable premature QRS complexes and salvos as more than 2 consecutive VPBs. Ventricular tachycardia was defined as 4 or more consecutive VPBs. Ventricular fibrillation (VF) was diagnosed when total irregularity of rhythm occurred and when a rate could no longer be measured. If defibrillation was required a DC shock was given.

[2] = tested on: guinea pig papillary muscles; assay: Electrophysiological studies: transmembrane action potentials of isolated papillary muscle; format: cell-based, Guinea pigs; details: for resting membrane potential, action potential amplitude, Vmax: even at the highest concentrations
Method: Guinea pigs (300-350 g) were anesthetized by intravenous injection of sodium pentobarbital (60 mg/kg). After thoracotomy the heart was rapidly excised and placed in oxygenated Tyrode solution. Papillary muscles were removed from the right ventricle. Preparations were then fixed to the silastic base of a 5 ml organ bath and superfused with oxygenated Tyrode solution maintained at 37 ± 1 °C.
The solution was equilibrated with a gas mixture of 95% O2 - 5% CO2.
After a stabilisation period (at least 1 h), transmembrane action potentials were recorded with conventional microelectrodes (10 MOhm) connected to a high input impedance amplifier (BIOLOGIC VF 180). External stimuli were delivered to the preparation with bipolar platinum electrodes placed at one end of the muscle. The pulse duration was 1 ms and the amplitude was twice threshold. The basic cycle length was 1000 ms (PULSAR 6i stimulator). The signals were monitored on a storage oscilloscope (GOULD 1602) and simultaneously recorded on a digital tape recorder (BIOLOGIC DTR 1200) for further analysis.
Measurements were made of resting membrane potential (RMP), action potential amplitude (APA) and action potential durations at 30, 50 and 90% repolarization (APD30, APD50 and APD90 respectively). Recordings were made after 30 min of equilibration for each concentration. Only recordings in which the same impalement was maintained throughout the entire experiment were used for analysis.

anesthetized dog = assay: Hemodynamic and electrocardiographic parameters in anesthetized dogs (before and during LCX occlusion/reperfusion); format: in vivo; details: for QTc: Bazett
Method: Surgical preparation. Dogs were anesthetized using 30 mg/kg i.v. sodium pentobarbital. […] A catheter was inserted into the right femoral artery to measure the systemic arterial pressure (Statham P23 ID, GOULD). A 5F Millar microtip catheter pressure transducer was inserted into the left carotid artery and advanced into the left ventricular lumen to measure the left ventricular pressure (LVP) and its first positive derivative dP/dt. Peripheral venous and arterial catheters were placed for drug administration and blood samples collection, respectively. Electrocardiographic variables were measured via a standard lead II ECG. For determination of the Q-T interval of ECG a CV5RL precordial lead of ECG was measured as previously described (Koerner et al.,J.,Cardiovascular Pharmacol. […] After a left thoracotomy through the fifth intercostal space, the heart was suspended in a pericardial cradle. The left circumflex coronary artery (LCX) was isolated close to its origin and a silk suture was placed around it for later occlusion. Experimental time course. After placement of the silk strand the animal was allowed to stabilize for at least 10 minutes. Arterial blood gases were determined (ABL500, Radiometer), and ventilation was adjusted to maintain these parameters within the normal range. Then, intravenous administration of the drug was performed in 10 minutes. After the drug administration, hemodynamic and ECG variables were again measured and the LCX was occluded for 45 minutes by placing a microclamp. Reperfusion performed by removing the clamp was continued for 5 hours. Arterial blood pressure and ECG were recorded continuously on a Gould polyrecorder. Signals were digitised by an A/D convertor and analysed on an IBM computer using an interactive software (Clodia, Clod sarl) and then transfered to a VAX 4000-200 computer (Digital Equipment Corporation, Maynard, MA) for further analysis. Heart rate was calculated from the ECG. […] QTc = (QT interval in msec) / (R-R interval in sec)^½.

[3] = preischemic period, Compound I 0.3 and 1.0 mg/kg, d-sotalol 3.0 and 10.0 mg/kg

With COc1ccc(CCN(C)CCCN(C(=O)c2ccc([N+](=O)[O-])cc2)c2ccc(OC)c(OC)c2)cc1OC [Compound I, (N-[3,4-dimethoxy-phenyl]-N-3-[N'-2-(3,4-dimethoxyphenyl)-ethyl-N'-methylamino]propyl)-N'-4-nitrobenzamide] the “incidence of ventricular fibrillation” value ([1]; 0.3 mg/kg, 45 min ischemia and first 60 min of reperfusion, control dogs 66.7 %) was 33.3%, the “incidence of ventricular fibrillation” value ([1]; 1.0 mg/kg, 45 min ischemia and first 60 min of reperfusion, control dogs 66.7 %, p <0.05) was 14.3% and the “ventricular fibrillation during ischemia” value ([1]; 0.3 or 1.0 mg/kg, ischemic period) was “none of the dogs treated with Compound I experienced ventricular fibrillation during ischemia”. It also gave an Overshoot ([2]; 0.3 µM) of 36 ± 1 mV, a Vmax ([2]; 0.3 µM) of 168 ± 14 V/sec and an APD50 ([2]; 0.3 µM, action potential duration at 50 % of the repolarization) of 162 ± 6 ms. For the same compound, the RMP ([2]; 0.3 µM, resting membrane potential) was -92 ± 1 mV, the APD50 ([2]; 1 µM) was 170 ± 5 ms and the Overshoot ([2]; 1 µM) was 35 ± 1 mV. It also gave an RMP ([2]; 1 µM) of -92 ± 1 mV, a Vmax ([2]; 1 µM) of 168 ± 14 V/sec and an APD50 ([2]; 3 µM) of 163 ± 5 ms. The Overshoot ([2]; 3 µM) was 34 ± 1 mV, the RMP ([2]; 3 µM) was -92 ± 1 mV and the Vmax ([2]; 3 µM) was 169 ± 14 V/sec. It also gave an APD50 ([2]; 10 µM) of 139 ± 6 ms, an Overshoot ([2]; 10 µM) of 33 ± 2 mV and an RMP ([2]; 10 µM) of -91 ± 1 mV. For the same compound, the Vmax ([2]; 10 µM) was 167 ± 15 V/sec, the “resting membrane potential, action potential amplitude, Vmax” value [2] was “did not change” and the action potential duration ([2]; prolongation at 0.3 and 1 µM, no further increase at 3 µM, reduced at 10 µM) was “biphasic effect”. For the same compound, the PR (anesthetized dog; dog, in vivo) was 112 ± 4 ms and 120 ± 6 ms and 115 ± 7 ms and 116 ± 3 ms and 113 ± 3 ms, the heart rate (anesthetized dog; dog, in vivo) was “reduced heart rate in a dose-dependent manner” and the “mean arterial and left ventricular pressure” value (anesthetized dog; dog, in vivo) was “only minimal changes”. For the same compound, the pressure rate product (anesthetized dog; dog, in vivo) was “reduced the pressure rate product”.
In the case of CC(C)NCC(O)c1ccc(NS(C)(=O)=O)cc1 (stereo not drawn) [d-Sotalol], the “ventricular fibrillation during the ischemic period” value ([1]; 3.0 mg/kg) is reported as “one dog”, the “incidence of ventricular fibrillation” value ([1]; 10.0 mg/kg (only the high dose), ischemia and reperfusion) is reported as “reduced the incidence of ventricular fibrillation” and the APA ([2]; 3 µM) is reported as 127 ± 1 mV. For the same compound, the APD30 ([2]; 3 µM) was 93 ± 5 ms, the APD50 ([2]; 3 µM) was 136 ± 5 ms and the APD90 ([2]; 3 µM) was 171 ± 5 ms. It also gave an Overshoot ([2]; 3 µM) of 33 ± 1 mV, an RMP ([2]; 3 µM) of -95 ± 1 mV and a Vmax ([2]; 3 µM) of 199 ± 30 V/sec. For the same compound, the APA ([2]; 10 µM) was 128 ± 1 mV, the APD30 ([2]; 10 µM) was 101 ± 8 ms and the APD50 ([2]; 10 µM) was 151 ± 7 ms. For the same compound, the APD90 ([2]; 10 µM) was 190 ± 7 ms, the Overshoot ([2]; 10 µM) was 34 ± 1 mV and the RMP ([2]; 10 µM) was -94 ± 1 mV. The Vmax ([2]; 10 µM) was 209 ± 32 V/sec, the APA ([2]; 30 µM) was 127 ± 1 mV and the APD30 ([2]; 30 µM) was 104 ± 7 ms. It also gave an APD50 ([2]; 30 µM) of 160 ± 6 ms, an APD90 ([2]; 30 µM) of 204 ± 6 ms and an Overshoot ([2]; 30 µM) of 33 ± 1 mV. It also gave an RMP ([2]; 30 µM) of -94 ± 1 mV, a Vmax ([2]; 30 µM) of 209 ± 32 V/sec and an APA ([2]; 100 µM) of 127 ± 1 mV. It also gave an APD30 ([2]; 100 µM) of 102 ± 7 ms, an APD50 ([2]; 100 µM) of 165 ± 6 ms and an APD90 ([2]; 100 µM) of 214 ± 7 ms. It also gave an Overshoot ([2]; 100 µM) of 32 ± 1 mV, an RMP ([2]; 100 µM) of -94 ± 1 mV and a Vmax ([2]; 100 µM) of 207 ± 34 V/sec. For the same compound, the action potential duration ([2]; 3 to 100 µM) was “dose-dependent increase in action potential duration”, the “resting membrane potential, action potential amplitude, Vmax” value [2] was “did not change” and the PR (anesthetized dog; 3.0 mg/kg i.v., After drug, before drug 105 ± 5) was 118 ± 7 ms. The QT (anesthetized dog; 3.0 mg/kg i.v., After drug, before drug 238 ± 11) was 269 ± 12 ms, the QTc (anesthetized dog; 3.0 mg/kg i.v., After drug, before drug 384 ± 8) was 397 ± 11 msec/sec^½ and the PR (anesthetized dog; 3.0 mg/kg i.v., Ischemia (45 min), before drug 105 ± 5) was 111 ± 7 ms. It also gave a QT (anesthetized dog; 3.0 mg/kg i.v., Ischemia (45 min), before drug 238 ± 11) of 264 ± 7 ms, a QTc (anesthetized dog; 3.0 mg/kg i.v., Ischemia (45 min), before drug 384 ± 8) of 400 ± 8 msec/sec^½ and a PR (anesthetized dog; 3.0 mg/kg i.v., reperfusion (60 min), before drug 105 ± 5) of 112 ± 5 ms. The QT (anesthetized dog; 3.0 mg/kg i.v., reperfusion (60 min), before drug 238 ± 11) was 251 ± 11 ms, the QTc (anesthetized dog; 3.0 mg/kg i.v., reperfusion (60 min), before drug 384 ± 8) was 392 ± 16 msec/sec^½ and the PR (anesthetized dog; 10.0 mg/kg i.v., After drug, before drug 109 ± 5) was 115 ± 5 ms. It also gave a QT (anesthetized dog; 10.0 mg/kg i.v., After drug, before drug 251 ± 11) of 337 ± 19 ms, a QTc (anesthetized dog; 10.0 mg/kg i.v., After drug, before drug 386 ± 3) of 440 ± 14 msec/sec^½ and a PR (anesthetized dog; 10.0 mg/kg i.v., Ischemia (45 min), before drug 109 ± 5) of 113 ± 5 ms. It also gave a QT (anesthetized dog; 10.0 mg/kg i.v., Ischemia (45 min), before drug 251 ± 11) of 312 ± 14 ms, a QTc (anesthetized dog; 10.0 mg/kg i.v., Ischemia (45 min), before drug 386 ± 3) of 423 ± 10 msec/sec^½ and a PR (anesthetized dog; 10.0 mg/kg i.v., reperfusion (60 min), before drug 109 ± 5) of 113 ± 6 ms. For the same compound, the QT (anesthetized dog; 10.0 mg/kg i.v., reperfusion (60 min), before drug 251 ± 11) was 285 ± 11 ms, the QTc (anesthetized dog; 10.0 mg/kg i.v., reperfusion (60 min), before drug 386 ± 3) was 400 ± 8 msec/sec^½ and the heart rate (anesthetized dog; [3]) was “reduced heart rate in a dose-dependent manner”. The “left ventricular dP/dtmax” value (anesthetized dog; [3]) was “reduction in the left ventricular dP/dtmax”, the “mean arterial and left ventricular pressure” value (anesthetized dog; [3]) was “only minimal changes” and the pressure rate product (anesthetized dog; [3]) was “reduced the pressure rate product”.
